This data set is described as follows: solvent given as SMILES.

Several values for one entry are separate records, joined by “and”; a condition that tells them apart may be missing. Equal values may be shown once.

The text below walks through data of the Deep4Chem optical property database.

In turn, `[O-][n+]1c(/C=C/c2ccccc2)nc(Nc2ccccc2)c2c1CCCC2` displayed an emission maximum (in ClCCl) of 508 nm.

With `C#CCn1c2ccccc2c2cc(/C=C/c3cc(C)c4n3[B-](F)(F)[N+]3=C(C)C=C(C)C3=C4c3ccc(I)cc3)ccc21`, the emission maximum runs as follows: (in CC#N) 605 nm; (in CS(C)=O) 614 nm; (in ClC(Cl)Cl) 607 nm.

`COc1ccc2c(c1)C(=O)c1cc(OC)cc(OC)c1-2`: the emission maximum reads like this: (in C1CCCCC1) 570 nm; (in CC#N) 628 nm.

As to `CC[n+]1c(C=C2C(=O)C(C=C3N(C)c4ccc(Cl)cc4C3(C)C)=C2[O-])sc2ccccc21`, the emission maximum is reported as 653 nm (in CO) and 664 nm (in ClC(Cl)Cl).

`C(#Cc1cccs1)C(C#Cc1cccs1)=Cc1ccc(C=C(C#Cc2cccs2)C#Cc2cccs2)s1` gave an emission maximum (in ClC(Cl)Cl) of 550 nm.

For the compound `Cc1ccc2nc(/C=C/c3ccc(N(C)C)cc3)c(-c3ccccc3)nc2c1`, the emission maximum (in C1COCCO1) is on record as 528 nm, the emission maximum (in CC#N) worked out at 614 nm and the emission maximum (in ClCCl) is reported as 571 nm.

Take `COc1ccc(/C=C2\OC(=O)c3ccccc32)cc1`: the emission maximum runs as follows: (in CC#N) 456.2 nm and 446 nm; (in CC(C)=O) 452.49 nm; (in CC(C)CO) 451.88 nm; (in CC(C)O) 459.77 nm; (in CCCO) 460.83 nm; (in CCO) 459.35 nm. In addition, the emission maximum was 438.6 nm (in CCOC(C)=O), 434.03 nm (in CCOCC) and 459.35 nm (in CO).

Turning to `C#CCNC1=C2C=CC=[N+]2[B-](F)(F)n2cccc21`, the emission maximum (in C1CCCCC1) was 482 nm and 486 nm; the emission maximum (in CC(C)=O) is on record as 466.5 nm; the emission maximum (in CCCCO) was determined as 463 nm; the emission maximum (in CCCO) came out at 467 nm; the emission maximum (in CCO) is 463 nm and 468 nm; the emission maximum (in CCOC(C)=O) amounted to 469.5 nm. Besides, the emission maximum is, setting by setting: (in CN(C)C=O) 458 nm; (in CO) 464.5 nm; (in CS(C)=O) 463 nm; (in Cc1ccccc1) 485 nm; (in ClC(Cl)Cl) 485 nm; (in OCC(F)(F)F) 480.5 nm. For the same compound, the emission maximum (in c1ccccc1) worked out at 485 nm.

Regarding `N#Cc1ccc(C#Cc2ccccc2C#N)cc1`, for the setting “in ClC(Cl)Cl”, the emission maximum worked out at 332 nm.

With `COc1cc(/C=C/c2nc3ccccc3o2)c(OC)cc1/C=C/c1nc(C)nc(/C=C/c2cc(OC)c(/C=C/c3nc4ccccc4o3)cc2OC)n1`, the emission maximum was 487 nm (in C1CCOC1), 502 nm (in CC#N), 494 nm (in ClC(Cl)Cl) and 496 nm (in ClCCl).

On to `Cc1cc(-c2ccccc2)cc(C)[o+]1`, for which the emission maximum (in CC#N) is given as 462 nm and the emission maximum (in ClCCl) came out at 434 nm.

`COc1ccc(C2=C3C(C)=CC(C=Cc4ccc(C(=O)OC5C[C@H]6CCC5(C)C6(C)C)cc4)=[N+]3[B-](F)(F)n3c(C)cc(C)c32)cc1` (some centres undefined) returned an emission maximum (in Cc1ccccc1) of 627 nm.

As for `CC1=N/C(=C\c2ccccc2N)C(=O)N1C`, the emission maximum by setting is: (in C1CCCCC1) 451 nm; (in C1CCOC1) 513 nm; (in CC#N) 453 nm; (in CO) 454 nm; (in CS(C)=O) 530 nm; (in ClCCl) 452 nm. The compound further yielded an emission maximum (in O) of 452 nm.

Regarding `CC1(C)C2=[N+](CCCCCC(=O)NCCCNC(=O)CCCCCN3/C(=C/C=C/C=C/C=C/2)C(C)(C)c2cc(S(=O)(=O)[O-])ccc23)c2ccc(S(=O)(=O)[O-])cc21`, the emission maximum is given as 776 nm (in CO) and 768 nm (in O).

Consider `C#Cc1ccc2cc(/C=C/C(=O)OCC)c(=O)oc2c1`, for which, for the setting “in CCO”, the emission maximum came out at 412 nm.

For `O=S(=O)([O-])c1ccc2c([O-])cc(S(=O)(=O)[O-])cc2c1`, the emission maximum (in O) amounted to 485 nm.

`COc1cc2oc(=O)c3c4ccc(C=O)cc4c4ccc5cccc6c(c1)c2c3c4c56` registered an emission maximum (in C1CCOC1) of 442 nm.

With `c1ccc(-c2nn(-c3ccccc3)c3nc4ccc(N(c5ccccc5)c5ccccc5)cc4cc23)cc1`, the emission maximum runs as follows: (in C1CCCCC1) 486.62 nm; (in C1CCOC1) 524.66 nm; (in CC#N) 570.78 nm; (in CC(C)=O) 551.27 nm; (in CCCCCl) 516 nm; (in CCCCOCCCC) 498.75 nm. Moreover, the emission maximum (in CN(C)C=O) was 567.21 nm.

Take `CC1=[O+][B-]2(OC(=O)C(=O)O2)OC(c2c3ccccc3cc3ccccc23)=C1`: the emission maximum by setting is: (in CC#N) 527 nm; (in ClC(Cl)(Cl)Cl) 514 nm.

`CCOc1cccc(-c2nc3c(c4c2-c2ccccc2CC4)-c2ccccc2CC3)c1O` yielded an emission maximum (in ClCCl) of 406 nm.

As for `COC(=O)c1ccc(C2=C3C=c4sccc4=[N+]3[B-](F)(F)n3c2cc2sccc23)cc1`, the emission maximum (in ClCCl) came out at 604 nm.

Where the note is “in ClCCl”, `CCOC(=O)c1c(C(=O)OC)c(-c2cc3cc(OC)ccc3oc2=O)nn1-c1ccccc1` gave an emission maximum of 451 nm.

`CCCCCCCCCCCCN1C(=O)c2c(c3ccc4cc(-c5ccc(C)cc5)c(OC)cc4c3c3c2ccc2cc(-c4ccc(C)cc4)c(OC)cc23)C1=O` showed an emission maximum (in ClCCl) of 529 nm.

In the case of `O=S(=O)([O-])c1ccc(O)c2ccccc12`, the emission maximum is 357 nm (in C1COCCO1); 358 nm (in CC#N); 360 nm (in CC(C)O); 361 nm (in CCCCO); 360 nm (in CCO); 354 nm (in CCOC(C)=O). In addition, the emission maximum is recorded as 366 nm (in CN(C)C=O), 361 nm (in CO) and 370 nm (in CS(C)=O).

For `CCOC(=O)c1cc(C(=O)OCC)c2cc(NC)ccc2n1`, under “in CCO”, the emission maximum stood at 539 nm.

`Cc1cc2nc3c(=O)n(C)c(=O)nc-3n(C)c2cc1C`: the emission maximum (in CC#N) is 531 nm.

In turn, `C[Si]1(C)O[Si](C)(C)c2cc3c(-c4ccccc4F)c4cc(Cl)ccc4nc3cc21` showed an emission maximum (in ClCCl) of 498 nm.

As for `Cc1ccc(-c2nc3c([nH]2)C2=CC(=O)S[C@]2(C)[C@@]2(C)SC(=O)C=C32)cc1`, the emission maximum (in CC#N) is given as 520 nm.

Under “in ClCCl”, `COc1ccc(-c2ccc(/C=C/c3cnc4ccccc4n3)cc2)cc1` displayed an emission maximum of 485 nm.

On to `C[Si](C)(C)C#C[Si](c1c2ccccc2cc2ccccc12)(c1c2ccccc2cc2ccccc12)c1c2ccccc2cc2ccccc12`, for which, for the setting “in ClC(Cl)Cl”, the emission maximum turned out to be 438 nm.

On to `Cc1ccc(/C=N/c2cc(C(C)C)c(O)cc2C)cc1`, for which the emission maximum runs as follows: (in C1CCCCC1) 400 nm; (in C1CCOC1) 410 nm; (in C1COCCO1) 408 nm; (in CC#N) 415 nm; (in CC(C)(C)O) 412 nm; (in CC(C)O) 416 nm. The emission maximum amounted to 402 nm (in CCCCCC); 417 nm (in CCCCO); 417 nm (in CCO); 409 nm (in CCOC(C)=O); 414 nm (in CN(C)C=O); 422 nm (in CO). For the same compound, the emission maximum is, setting by setting: (in CS(C)=O) 417 nm; (in ClC(Cl)Cl) 415 nm; (in ClCCl) 415 nm; (in O) 441 nm; (in OCCO) 425 nm.
